Measured values taken from patent US20200283381A1, “SOLID STATE FORMS OF ELAFIBRANOR” (TEVA PHARMACEUTICALS INTERNATIONAL GMBH, priority 2017, published 2020).

Key:
[1] = Thermodynamic (polymorphic) stability: conversion to other solid state forms, measured by XRPD; assay type: physicochemical; conditions: after exposure to conditions of up to 25° C./100% RH for at least 1 month, as measured by XRPD; stable = less than 20% conversion
Method: The crystalline Elafibranor as described above in (a)-(f) may be anhydrous. The crystalline Elafibranor may be substantially free of other solid state forms of Elafibranor. […] In some embodiments, the conversion is 1%-20%, 1%-10% or 1%-5%.
Melting peak of crystalline form I of Elafibranor is in the range of about 154° C. and about 164° C., for example about 158° C. and about 160° C., preferably at about 159° C. as measured by DSC. […] Thermodynamic stability in relation to crystalline Elafibranor form I refers to less than 20%, less than 10%, less than 5%, less than 2%, less than 1%, or less than 0.5% conversion of crystalline Elafibranor form I to any other solid state form of Elafibranor after exposure of form I to conditions of up to 25° C./100% RH for at least 1 month, as measured by XRPD. In some embodiments, the conversion is 1%-20%, 1%-10% or 1%-5%.
Thermodynamic stability in relation to crystalline Elafibranor form II refers to less than 20%, 10%, 5%, 2%, 1%, or 0.5% conversion of crystalline Elafibranor form II to any other solid state form of Elafibranor after exposure of form II to conditions of up to 25° C./100% RH for at least 1 month, as measured by XRPD. In some embodiments, the conversion is 1%-20%, 1%-10% or 1%-5%.
Sample after being powdered in a mortar and pestle is applied directly on a silicon plate holder. […]

[2] = Hygroscopicity (water absorption, European Pharmacopoeia 7.0, chapter 01/2008:51100); assay type: physicochemical; conditions: non-hygroscopic = less than 0.1% (w/w) of water absorption after 24 h exposure to 25° C./80% RH
Method: As used herein the term non-hygroscopic in relation to crystalline Elafibranor refers to less than 0.1% (w/w) of water absorption after 24 h exposure to 25° C./80% RH, determined according to European Pharmacopoeia 7.0, chapter 01/2008:51100. Water can be for example atmospheric water.

With `CSc1ccc(C(=O)/C=C/c2cc(C)c(OC(C)(C)C(=O)O)c(C)c2)cc1` [form I, 2-(2,6-dimethyl-4-{3-[4-(methylsulfanyl)phenyl]-3-oxoprop-1-en-1-yl}phenoxy)-2-methylpropanoic acid] the “thermodynamic stability (conversion to any other solid state form of Elafibranor)” value [1] was “thermodynamically stable” and the hygroscopicity [2] was “non-hygroscopic”.
